Laboratory results reported in US5876715A, “Antibodies that bind novel carbohydrate ligands (myelorollins) that cause E-selectin dependent cell rolling, and uses thereof” (The Biomembrane Institute, priority 1996, dated 1999).
“Also recorded” adds a separate entry of the source.

Each substance was assayed on E-selectin-expressing CHO cells (assay: Static adhesion assay using 96-well plates coated with gangliosides). Conditions: static conditions; ganglioside coated on 96-well plates (25 to 200 ng); [3H]thymidine-labeled cells; control with mAb E1C.
Assay type: cell-based, Chinese hamster
Text: Adhesion of E-selectin-expressing CHO cells to various quantities of poly-LacNAc gangliosides coated on 96-well plates (Falcon, Becton-Dickinson, Lincoln Park, N.J.). Points represent mean experimental minus control value in the presence of mAb E1C, ±SE of triplicate experiments. .circle-solid.SLe^x -Le^x, Δ Fr. 10-1, .tangle-solidup. Fr. 10-2, .quadrature. Fr. 9, .smallcircle. Fr. 12-2.
Static adhesion assay using 96-well plates: Poly-LacNAc gangliosides with SLe^x -Le^x structure and Frs. 9, 10-1, 10-2 and 12-2, dissolved in 50% ethanol, were serially diluted in 96-well plates (the first well contained 200 ng), and plates were dried at 37° C. for 5 hr. Plates with similar serial dilutions of poly-LacNAc gangliosides were prepared for control cell adhesion in the presence of mAb E1C (see above). E-selectin-expressing CHO cells (Handa et al., Int. J. Oncol. 6:773-781 (1995)) were metabolically labeled with [^3 H] thymidine and incubated for 2 days. Cell suspension (2×10^6 per mL) was prepared by 2 mM EDTA treatment of cultured cells. A 50 μL aliquot of this cell suspension (containing 1×10^5 cells; approximately 5000 cpm) was added to each well and incubated for 1 hr. As a control, EDTA-harvested cells were washed with DMEM and incubated with mAb E1C on ice for 30 min, followed by preparation of cell suspension as above, but containing 10 μg mAb E1C per mL. Aliquots were added to each well and incubated as above. Cells were washed 3× with PBS by inversion of the plate on blotting paper. Adherent cell count as measured by ^3 H activity was determined.
Additional details of the experiment whose data are shown in FIGS. 1A and 1B are as follows: SLe^x -Le^x and poly-LacNAc gangliosides (Frs. 7, 9, 10-1, 10-2, 12-2, 13-1 and 14) dissolved in 50% ethanol were appropriately diluted and coated on wells of 96-well plates (amounts of 25 to 200 ng as shown on abscissa). Wells were dried at 37° C. for 5 hr. Two identical plates (1 and 2) were prepared in this way. To each well of plate 1, 50 μL aliquots of RPMI containing 1×10^5 E-selectin-expressing CHO cells metabolically labeled with [^3 H] thymidine were added. To each well of plate 2, aliquots of the same cell preparation preincubated with anti-E-selectin mAb E1C (10 μg Ig per mL) and suspended in RPMI containing mAb E1C were added. Plates 1 and 2 were incubated for 25 min. and washed with PBS. […] Each well was filled with 200 μL of PBS, carefully shaken, and plates were inverted on blotting paper for 10 min. All non-adherent cells were sedimented and absorbed on the blotting paper. Adherent cells remaining on wells were counted. Cell numbers (expressed on ordinate) were calculated based on measured radioactivity. Solid circle, SLe^x -Le^x without E1C (from plate 1). Open circle, SLe^x -Le^x with E1C (from plate 2). Adhesion values from various poly-LacNAc gangliosides with and without E1C were all near zero and cannot be distinguished on the graph.
Static adhesion assay using 96-well plates: Poly-LacNAc gangliosides with SLe^x -Le^x structure, and Fr. 9, 10-1, 10-2, and 12-2, dissolved in 50% ethanol, were serially diluted in 96-well plates (the first well contained […]), and plates were dried at 37° C. for 5 hr. Plates with similar serial dilutions of poly-LacNAc gangliosides were prepared for control cell adhesion in the presence of mAb E1C […] (see above). E-selectin-expressing CHO cells (Handa et al., 1995, Int. J. Oncol. 6:773-781) were metabolically labeled with [^3 H]thymidine and incubated for 2 days. Cell suspension (2×10^6 per mL) was prepared by 2 mM EDTA treatment of cultured cells. A 50 μL aliquot of this cell suspension (containing 1×10^5 cells; about 5000 cpm) was added to each well and incubated for 1 hr. As a control, EDTA-harvested cells were washed with DMEM and incubated with mAb E1C (10 μg/ml) on ice for 30 min, followed by preparation of cell suspension as above, but containing 10 μg E1C per mL. Aliquots were added to each well and incubated as above. […]
“VIII^3 NeuAcIII^3 FucnLc8 Cer [Fr. 10-2]” was tested, and the “adhesion of E-selectin-expressing CHO cells” value was “little or no adhesion”. VIII^3 NeuAcV^3 FucnLc8 Cer [Fr. 10-1] was tested, and the “adhesion of E-selectin-expressing CHO cells” value was “little or no adhesion”. In the case of “VI^3 NeuAcV^3 FucIII^3 FucnLc6 Cer [SLe^x -Le^x, reference compound]”, the “adhesion of E-selectin-expressing CHO cells” value is reported as “much stronger adhesion than myelorollin (Frs. 13-1 and 14); also recorded: capable of binding E-selectin expressing cells”. VI^3 NeuAcnLc6 Cer [Fr. 7] was tested, and the “adhesion of E-selectin-expressing CHO cells” value was “little or no adhesion”. With X^3 NeuAcVII^3 FucnLc10 Cer [Fr. 12-2] the “adhesion of E-selectin-expressing CHO cells” value was “little or no adhesion”.

Same assay, conditions: static conditions; ganglioside coated on 96-well plates (25 to 200 ng); [3H]thymidine-labeled cells; control with mAb E1C; listed as SLE^x -Le^x
“VI^3 NeuAcV^3 FucIII^3 FucnLc6 Cer [SLe^x -Le^x, reference compound]” was tested, and the “adhesion of E-selectin-expressing CHO cells” value was “bound to E-selectin”.
